Measurements reported in patent publication US8906416B2, “Xanthenedione derivatives for the treatment of pigmentation and skin ageing disorders” (Pierre Fabre Dermo-Cosmetique, priority 2010, dated 2014).
pIC50: −log10 of the molar value.

Legend:
[1] = reference products of the interpretation scale; cited from earlier work
[2] = system: B16-F10 cells; assay: Melanin assay test in B16-F10 cells; assay type: cell-based, murine; details: for pIC50: Mus musculus, B16-F10, 0.1 μM α-MSH stimulated, 72 hours treatment, read-out: Results activity B16-F10 IC50 (50% melanin synthesis inhibition); for Results activity B16-F10, percentage of activity on melanin synthesis: negative value indicates an inhibition
Method: This involves a test of measuring the synthesis of melanin by colorimetric assay on a murine melanoma cell line: the B16-F10 line. This test enables the depigmenting power of active ingredients to be evaluated.
The B16-F10 cells are cultured in 96-well plates in DMEM medium, supplemented with FCS (foetal calf serum), and incubated 24 hours at 37° C., 5% CO2. The cells are then stimulated with 0.1 μM α-MSH (to stimulate the synthesis of melanin, the stimulation observed is around 150%) and treated 72 hours with the active ingredients to be tested. Each concentration of active ingredient is tested at least in triplicate. The total melanin followed by the intracellular melanin dissolved in the lysis buffer are then assayed by absorbance reading at 405 nm. The total proteins are assayed in the lysate and the results are expressed in mg melanin/mg proteins. The percentage of activity is calculated as follows:
[formula] A negative value indicates an inhibition, whereas a positive value indicates an induction of the synthesis of melanin. General Experimental Conditions: • Equipment: • CO2 cell incubator (Heraeus), Oven, Centrifuge (Heraeus), Laminar air flow fume hood, 96-well clear bottomed plates—Falcon, sterile cones—Treff Lab, Polylabo, Mithras LB940 (Berthold Technologies)-154/MIPA/003 Biological Equipment: • B16-F10 cell line between P10 and P20 (murine melanocytes) (ATCC, CRL-6475) • Reagents • DMEM without phenol red (GIBCOBRL, 31053-028), 200 mM Glutamax-I Supplement (GIBCOBRL, 35050-038), D-PBS (GIBCOBRL, 14190-094), Foetal calf serum (Invitrogen, 10270-098), Trypsine-EDTA (GIBCOBRL, 25300-054), NaOH (Sigma, S8045-500G), DMSO (Sigma, 471267-1L), Nle, Phe—Melanocyte Stimulating Hormone (Sigma, M-8764), Melanin (Sigma, M-0418), BCA-COPPER (SIGMA, B9643 AND C2284), BSA (SIGMA, P0914) B) Test for the Study of the Antioxidant Capacity by Chemiluminescence (Photochem Analytik Jena) Principle: […]

[3] = Antioxidant capacity by chemiluminescence (Photochem Analytik Jena); assay type: biochemical; details: superoxide anion trapping
Method: This test is used to determine the antioxidant capacity of molecules. It is a method that generates free radicals by a photochemical signal. The intensity of the oxidation is 1000 times greater than those obtained under normal conditions.
The detection is performed by chemiluminescence. It enables the evaluation of hydrosoluble and liposoluble antioxidant molecules or extracts.
The results are expressed respectively in equivalent quantity of vitamin C or Trolox (6-hydroxy-2,5,7,8-tetramethylchroman-2-carboxylic acid). The sensitivity is of the order of the nanomole.
The antioxidant activity studied in this test represents the capacity to specifically trap the superoxide anions by chemiluminescence.
The quantified results are expressed in equivalent Trolox (standard), i.e. in “μg of product for 1 μg of Trolox”. This signifies that a quantity x of sample is required to obtain an activity equivalent to the activity detected for 1 μg of standard. It is an anti-oxidant power relative to a reference, which can be determined independently of the tested concentration.
The superoxide radical: O2^o^− is generated by a photochemical reaction: L+hv(UV)+O2→L*O2→L^o^++O2^o^− • L*: luminol in the excited state L^o+: luminol radical Detection of the Signal:
Part of the superoxide anions is quenched by anti-oxidants. The remaining free radicals are quantified by chemiluminescence. L^o^++O2^o^−→N2+[…]→AP^2−+hv(luminescence) AP*^2−: aminophthalate in the excited state

| Compound | pIC50 [2] | μg of sample for 1 μg of Trolox [3] | also measured |
| --- | --- | --- | --- |
| O=C(O)CCCC[C@@H]1CCSS1 (racemic) [Lipoic acid] |  |  | Activity (scale for interpreting the results) [1]: Nil; μg sample for 1 μg of Trolox (scale for interpreting the results) [1]: Negative |
| Cc1cc(C(C)(C)C)c(O)c(C(C)(C)C)c1 [BHT] |  |  | Activity (scale for interpreting the results) [1]: Good; μg sample for 1 μg of Trolox (scale for interpreting the results) [1]: 3.01 to 50 μg sample for 1 μg of Trolox |
| N[C@@H](CS)C(=O)O [Cysteine] |  |  | Activity (scale for interpreting the results) [1]: Medium; μg sample for 1 μg of Trolox (scale for interpreting the results) [1]: 50.1 to 1000 μg sample for 1 μg of Trolox |
| COc1cc(C2C3=C(CC(C)(C)CC3=O)OC3=C2C(=O)CC(C)(C)C3)ccc1O [Example 1, 9-(4-hydroxy-3-methoxyphenyl)-3,3,6,6-tetramethyl-3,4,5,6,7,9-hexahydro-1H-xanthene-1,8(2H)-dione] | 4.30 | 2.1 μg of sample for 1 μg of Trolox |  |
| CC1(C)CC(=O)C2=C(C1)OC1=C(C(=O)CC(C)(C)C1)C2c1ccc(O)c(O)c1 [Example 2, 9-(3,4-dihydroxyphenyl)-3,3,6,6-tetramethyl-3,4,5,6,7,9-hexahydro-1H-xanthene-1,8(2H)-dione] | 4.70 | 0.03 μg of sample for 1 μg of Trolox |  |
| COc1cc(C2C3=C(CC(C)(C)CC3=O)OC3=C2C(=O)CC(C)(C)C3)cc(OC)c1O [Example 3, 9-(4-hydroxy-3,5-dimethoxyphenyl)-3,3,6,6-tetramethyl-3,4,5,6,7,9-hexahydro-1H-xanthene-1,8(2H)-dione] | 4.35 | 0.72 μg of sample for 1 μg of Trolox |  |
| O=C1CC(c2ccccc2)CC2=C1C(c1ccc(O)c(O)c1)C1=C(CC(c3ccccc3)CC1=O)O2 (stereo not drawn) [Example 4, 9-(3,4-dihydroxyphenyl)-3,6-diphenyl-3,4,5,6,7,9-hexahydro-1H-xanthene-1,8(2H)-dione] | 5.15 | 0.001 μg of sample for 1 μg of Trolox |  |
| CC1(C)CC(=O)C2=C(C1)OC1=C(C(=O)CC(C)(C)C1)C2c1cc(C(C)(C)C)c(O)c(C(C)(C)C)c1 [Example 5, 9-(3,5-di-tert-butyl-4-hydroxyphenyl)-3,3,6,6-tetramethyl-3,4,5,6,7,9-hexahydro-1H-xanthene-1,8(2H)-dione] | 5.70 | 50 μg of sample for 1 μg of Trolox |  |
| COc1cc(C2C3=C(CC(c4ccccc4)CC3=O)OC3=C2C(=O)CC(c2ccccc2)C3)ccc1O (stereo not drawn) [Example 6, 9-(4-hydroxy-3-methoxyphenyl)-3,6-diphenyl-3,4,5,6,7,9-hexahydro-1H-xanthene-1,8(2H)-dione] | 5.22 | 2.46 μg of sample for 1 μg of Trolox |  |
| CCCCC/C=C\C/C=C\CCCCCCCC(=O)Oc1ccc(C2C3=C(CC(C)(C)CC3=O)OC3=C2C(=O)CC(C)(C)C3)cc1OC [Example 7, (9Z,12Z)-2-methoxy-4-(3,3,6,6-tetramethyl-1,8-dioxo-2,3,4,5,6,7,8,9-octahydro-1H-xanthen-9-yl)phenyl octadeca-9,12-dienoate] |  | 19.7 μg of sample for 1 μg of Trolox |  |
| CC1(C)CC(=O)C2=C(C1)OC1=C(C(=O)CC(C)(C)C1)C2c1ccc(O)cc1 [Example 9, 9-(4-hydroxyphenyl)-3,3,6,6-tetramethyl-3,4,5,6,7,9-hexahydro-1H-xanthene-1,8(2H)-dione] | 4.43 | 7.39 μg of sample for 1 μg of Trolox |  |
| Cc1cc(C2C3=C(CC(C)(C)CC3=O)OC3=C2C(=O)CC(C)(C)C3)cc(C)c1O [Example 10, 9-(4-hydroxy-3,5-dimethylphenyl)-3,3,6,6-tetramethyl-3,4,5,6,7,9-hexahydro-1H-xanthene-1,8(2H)-dione] |  | 4.10 μg of sample for 1 μg of Trolox |  |
| COc1cc(C2C3=C(CCCC3=O)OC3=C2C(=O)CCC3)ccc1O [Example 11, 9-(4-hydroxy-3-methoxyphenyl)-3,4,5,6,7,9-hexahydro-1H-xanthene-1,8(2H)-dione] |  | 1.07 μg of sample for 1 μg of Trolox |  |
| COc1cc(C2C3=C(CC(C(C)C)CC3=O)OC3=C2C(=O)CC(C(C)C)C3)ccc1O (stereo not drawn) [Example 12, 9-(4-hydroxy-3-methoxyphenyl)-3,6-diisopropyl-3,4,5,6,7,9-hexahydro-1H-xanthene-1,8(2H)-dione] | 4.80 | 1.64 μg of sample for 1 μg of Trolox |  |
| COc1cc(C2C3=C(CC(c4ccc(OC)c(OC)c4)CC3=O)OC3=C2C(=O)CC(c2ccc(OC)c(OC)c2)C3)ccc1O (stereo not drawn) [Example 14, 3,6-bis(3,4-dimethoxyphenyl)-9-(4-hydroxy-3-methoxyphenyl)-3,4,5,6,7,9-hexahydro-1H-xanthene-1,8(2H)-dione] |  | 2.27 μg of sample for 1 μg of Trolox |  |
| CCOc1cc(C2C3=C(CC(C)(C)CC3=O)OC3=C2C(=O)CC(C)(C)C3)ccc1O [Example 15, 9-(3-ethoxy-4-hydroxyphenyl)-3,3,6,6-tetramethyl-3,4,5,6,7,9-hexahydro-1H-xanthene-1,8(2H)-dione] | 4.72 | 1.79 μg of sample for 1 μg of Trolox |  |
| COc1cc(C2C3=C(CC(C)(C)CC3=O)OC3=C2C(=O)CC(C)(C)C3)cc(Cl)c1O [Example 16, 9-(3-chloro-4-hydroxy-5-methoxyphenyl)-3,3,6,6-tetramethyl-3,4,5,6,7,9-hexahydro-1H-xanthene-1,8(2H)-dione] |  | 5.20 μg of sample for 1 μg of Trolox | Results activity B16-F10, percentage of activity on melanin synthesis ([2]; 20 μM): −31% to 20 μM |
| COc1cc(C2C3=C(CC(C)(C)CC3=O)OC3=C2C(=O)CC(C)(C)C3)cc(Br)c1O [Example 17, 9-(3-bromo-4-hydroxy-5-methoxyphenyl)-3,3,6,6-tetramethyl-3,4,5,6,7,9-hexahydro-1H-xanthene-1,8(2H)-dione] |  | 5.18 μg of sample for 1 μg of Trolox |  |
| COc1cc(C2C3=C(CC(C)(C)CC3=O)OC3=C2C(=O)CC(C)(C)C3)cc(I)c1O [Example 18, 9-(4-hydroxy-3-iodo-5-methoxyphenyl)-3,3,6,6-tetramethyl-3,4,5,6,7,9-hexahydro-1H-xanthene-1,8(2H)-dione] |  | 4.66 μg of sample for 1 μg of Trolox |  |
| COc1cc(C2C3=C(CC(C)(C)CC3=O)OC3=C2C(=O)CC(C)(C)C3)cc(O)c1O [Example 19, 9-(3,4-dihydroxy-5-methoxyphenyl)-3,3,6,6-tetramethyl-3,4,5,6,7,9-hexahydro-1H-xanthene-1,8(2H)-dione] |  | 0.02 μg of sample for 1 μg of Trolox | Results activity B16-F10, percentage of activity on melanin synthesis ([2]; 10 μM): −22% to 10 μM |
| CC(=O)Oc1ccc(C2C3=C(CC(c4ccccc4)CC3=O)OC3=C2C(=O)CC(c2ccccc2)C3)cc1OC(C)=O (stereo not drawn) [Example 26, 4-(1,8-dioxo-3.6-diphenyl-2,3,4,5,6,7,8,9-octahydro-1H-xanthen-9-yl)-1,2-phenylene diacetate] |  |  | Results activity B16-F10, percentage of activity on melanin synthesis ([2]; 20 μM): −28% to 20 μM |
| CC(=O)Oc1ccc(C2C3=C(CC(C)(C)CC3=O)OC3=C2C(=O)CC(C)(C)C3)cc1OC(C)=O [Example 27, 4-(3,3,6,6-tetramethyl-1,8-dioxo-2,3,4,5,6,7,8,9-octahydro-1H-xanthen-9-yl)-1,2-phenylene diacetate] |  | 0.096 μg of sample for 1 μg of Trolox |  |
